Measurements published in patent US10633407B2, “14-membered ketolides and methods of their preparation and use” (President and Fellows of Harvard College, priority 2014, dated 2020).
≈ marks a conversion by molar mass, not a printed value.

How the values were obtained:
[1] = system: K. pneumoniae KPC-2; assay: CLSI broth dilution MIC determination; assay type: cell-based; conditions: Klebsiella pneumoniae, KPC2, read-out: MIC
[2] = system: P. aeruginosa HPA101-1477; assay: CLSI broth dilution MIC determination; assay type: cell-based; conditions: Pseudomonas aeruginosa, HPA1011477, read-out: MIC
[3] = system: P. aeruginosa ATCC 27853; assay: CLSI broth dilution MIC determination; assay type: cell-based; conditions: Pseudomonas aeruginosa, ATCC27853; P. aeruginosa ATCC 27853 (MP-3); read-out: MIC
[4] = system: K. pneumoniae SHV-12; assay: CLSI broth dilution MIC determination; assay type: cell-based; conditions: Klebsiella pneumoniae, SHV12, read-out: MIC
[5] = system: S. pyogenes ATCC 19615; assay: CLSI broth dilution MIC determination; assay type: cell-based; conditions: Streptococcus pyogenes, ATCC19615, S. pyogenes ATCC 19615 (MP-19); read-out: MIC
[6] = system: S. pyogenes Macrolide-resistant; assay: CLSI broth dilution MIC determination; assay type: cell-based; conditions: Streptococcus pyogenes, S. pyogenes Macrolide-resistant (MP-625 UNT-014); read-out: MIC
[7] = system: H. influenzae Erythro >4, Azithro 1; assay: CLSI broth dilution MIC determination; assay type: cell-based; conditions: Haemophilus influenzae; read-out: MIC
Excerpt: MIC data was collected for the novel macrolides that this platform has produced against over 21 unique strains of B. subtilis, E. coli, S. aureus, S. pneumoniae, and H. influenzae, including several multidrug-resistant strains, with a special focus on macrolide resistant mechanisms (vide supra). […] CLSI standard procedures for broth dilution MIC determination were used. […] These genotypes can be constitutive or inducible.

[8] = system: A. baumannii ATCC 19606; assay: CLSI broth dilution MIC determination; assay type: cell-based; conditions: Acinetobacter baumannii, ATCC19606; A. baumannii ATCC 19606 (MP-15); read-out: MIC
[9] = system: A. baumannii IMP-4; assay: CLSI broth dilution MIC determination; assay type: cell-based; conditions: Acinetobacter baumannii, IMP4, read-out: MIC
[10] = system: A. baumannii chromosomal class C; assay: CLSI broth dilution MIC determination; assay type: cell-based; conditions: Acinetobacter baumannii, read-out: MIC
[11] = system: A. baumannii imipenem-resistant; assay: CLSI broth dilution MIC determination; assay type: cell-based; conditions: Acinetobacter baumannii, read-out: MIC
[12] = system: E. faecalis ATCC 29212; assay: CLSI broth dilution MIC determination; assay type: cell-based; conditions: Enterococcus faecalis, ATCC29212, E. faecalis ATCC 29212 (MP-24); read-out: MIC
[13] = system: E. faecalis Vancomycin-resistant; assay: CLSI broth dilution MIC determination; assay type: cell-based; conditions: Enterococcus faecalis, E. faecalis Vancomycin-resistant (UNT-039); read-out: MIC
[14] = system: K. pneumoniae ATCC 10031; assay: CLSI broth dilution MIC determination; assay type: cell-based; conditions: Klebsiella pneumoniae, ATCC10031, K. pneumoniae ATCC 10031 (MP-14); read-out: MIC
[15] = system: S. aureus erm A genotype; assay: CLSI broth dilution MIC determination; assay type: cell-based; conditions: Staphylococcus aureus; S. aureus erm A genotype (MP-620 UNT-146); read-out: MIC
Procedure, shortened: (§1)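 Method: CLSI broth dilution; endpoint: MIC. Macrolide controls azithromycin and solithromycin added in many cases.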

[16] = system: E. coli NDM-1; assay: CLSI broth dilution MIC determination; assay type: cell-based; conditions: Escherichia coli, NDM1, read-out: MIC
Procedure, shortened: as §1

[17] = system: S. pneumoniae ATCC 49619; assay: CLSI broth dilution MIC determination; assay type: cell-based; conditions: Streptococcus pneumoniae, ATCC49619, S. pneumoniae ATCC 49619 (MP-21); read-out: MIC
Procedure, shortened: as §1

[18] = system: S. aureus MRSA: USA100; assay: CLSI broth dilution MIC determination; assay type: cell-based; conditions: Staphylococcus aureus; S. aureus MRSA: USA100 (MP-618 UNT-096); read-out: MIC
Procedure, shortened: as §1

[19] = system: E. coli ATCC 25922; assay: CLSI broth dilution MIC determination; assay type: cell-based; conditions: Escherichia coli, ATCC25922, E. coli ATCC 25922 (MP-4); read-out: MIC
Procedure, shortened: as §1

[20] = system: S. pneumoniae erm B + mef A genotype; assay: CLSI broth dilution MIC determination; assay type: cell-based; conditions: Streptococcus pneumoniae
Procedure, shortened: as §1

[21] = system: H. influenzae ATCC49247; assay: CLSI broth dilution MIC determination; assay type: cell-based; conditions: Haemophilus influenzae, read-out: MIC
Procedure, shortened: as §1

[22] = system: S. aureus MRSA: USA300; assay: CLSI broth dilution MIC determination; assay type: cell-based; conditions: Staphylococcus aureus; S. aureus MRSA: USA300 (MP-549, msr(a)); read-out: MIC
Procedure, shortened: as §1

[23] = system: E. coli CTX-M-14; assay: CLSI broth dilution MIC determination; assay type: cell-based; conditions: Escherichia coli, CTXM14, read-out: MIC
Procedure, shortened: as §1

[24] = system: S. pneumoniae mef A genotype (first strain so labelled); assay: CLSI broth dilution MIC determination; assay type: cell-based; conditions: Streptococcus pneumoniae, first strain (MP-626 UNT-038)
Procedure, shortened: as §1

[25] = system: S. pneumoniae erm B + tet(M,O) genotype; assay: CLSI broth dilution MIC determination; assay type: cell-based; conditions: Streptococcus pneumoniae
Procedure, shortened: as §1

[26] = system: E. coli TEM-1; assay: CLSI broth dilution MIC determination; assay type: cell-based; conditions: Escherichia coli, TEM1
Procedure, shortened: as §1

[27] = system: S. aureus USA600, GISA; assay: CLSI broth dilution MIC determination; assay type: cell-based; conditions: Staphylococcus aureus; S. aureus USA600, GISA (MP-619 UNT-120); read-out: MIC
Procedure, shortened: as §1

[28] = system: S. aureus ATCC 29213; assay: CLSI broth dilution MIC determination; assay type: cell-based; conditions: Staphylococcus aureus, ATCC29213; S. aureus ATCC 29213 (MP-12); read-out: MIC
Procedure, shortened: as §1

[29] = system: K. pneumoniae TEM-10; assay: CLSI broth dilution MIC determination; assay type: cell-based; conditions: Klebsiella pneumoniae, TEM10, read-out: MIC
[30] = system: S. pneumoniae mef A genotype (second strain so labelled); assay: CLSI broth dilution MIC determination; assay type: cell-based; conditions: Streptococcus pneumoniae, second strain (MP-627 UNT-039), read-out: MIC
Procedure, shortened: as §1

[31] = from CC[C@@H](O)[C@@]1(C)OC(=O)N(CCCCN=[N+]=[N-])[C@@H]1[C@@H](C)C(=O)[C@H](C)C[C@@](C)(OC)[C@H](O[C@@H]1O[C@H](C)C[C@H](N(C)C)[C@H]1OC(=O)OC)[C@@H](C)C1=C(C)C(=O)OC(C)(C)O1; ester bond; none (thermal, dioxinone to acylketene); chlorobenzene; 1.0 mM; 150.0 °C; 16.0 h

Structure (SMILES)	MIC [1] [µg/mL]	MIC [2] [µg/mL]	MIC [3] [µg/mL]	MIC [4] [µg/mL]	MIC [5] [µg/mL]	MIC [6] [µg/mL]	MIC [7] [µg/mL]	MIC [8] [µg/mL]	MIC [9] [µg/mL]	MIC [10] [µg/mL]	MIC [11] [µg/mL]	MIC [12] [µg/mL]	MIC [13] [µg/mL]	MIC [14] [µg/mL]	MIC [15] [µg/mL]	MIC [16] [µg/mL]	MIC [17] [µg/mL]	MIC [18] [µg/mL]	MIC [19] [µg/mL]	MIC [20] [µg/mL]	other results
CC[C@H]1OC(=O)[C@@](C)(F)C(=O)[C@H](C)[C@@H](O[C@@H]2OC(C)CC(N(C)C)C2O)[C@](C)(OC)C[C@@H](C)C(=O)C[C@H]2N(CCCCn3cc(-c4cccc(N)c4)nn3)C(=O)O[C@]12C (stereo partly shown) [FSM-21598]	> 32	> 32	> 32	> 32	≤ 0.0312	0.25 (≈ 0.301 µM)	8 (≈ 9.63 µM)	> 32	> 32	32 (≈ 38.5 µM)	> 32	≤ 0.0312	> 32	8 (≈ 9.63 µM)	> 32	> 32	≤ 0.0312	> 32	> 32	8 (≈ 9.63 µM)	MIC [21]: 4 µg/mL (≈ 4.81 µM); MIC [22]: 32 µg/mL (≈ 38.5 µM); MIC [23]: > 32 µg/mL; MIC [24]: ≤ 0.0312 µg/mL; MIC [25]: ≤ 0.0312 µg/mL; MIC [26]: > 32 µg/mL; MIC [27]: > 32 µg/mL; MIC [28]: 32 µg/mL (≈ 38.5 µM); MIC [29]: > 32 µg/mL; MIC [30]: 0.25 µg/mL (≈ 0.301 µM)
CC[C@H]1OC(=O)[C@H](C)C(=O)[C@H](C)[C@@H](O[C@@H]2OC(C)CC(N(C)C)C2O)[C@](C)(OC)C[C@@H](C)C(=O)C[C@H]2N(CCCCn3cc(-c4cccc(N)c4)nn3)C(=O)O[C@]12C (stereo partly shown) [FSM-21535]	> 32	> 32	> 32	> 32	≤ 0.0312	0.5 (≈ 0.615 µM)	8 (≈ 9.84 µM)	> 32	> 32	> 32	> 32	≤ 0.0312	> 32	4 (≈ 4.92 µM)	> 32	> 32	≤ 0.0312	> 32	> 32	8 (≈ 9.84 µM)	MIC [21]: 4 µg/mL (≈ 4.92 µM); MIC [22]: 32 µg/mL (≈ 39.4 µM); MIC [23]: > 32 µg/mL; MIC [24]: 0.0625 µg/mL (≈ 0.0769 µM); MIC [25]: ≤ 0.0312 µg/mL; MIC [26]: > 32 µg/mL; MIC [27]: > 32 µg/mL; MIC [28]: 16 µg/mL (≈ 19.7 µM); MIC [29]: > 32 µg/mL; MIC [30]: 0.5 µg/mL (≈ 0.615 µM)
CC[C@H]1OC(=O)[C@H](C)C(=O)[C@H](C)[C@@H](O[C@@H]2O[C@H](C)C[C@H](N(C)C)[C@H]2OC(=O)OC)[C@](C)(OC)C[C@@H](C)C(=O)[C@H](C)[C@H]2N(CCCCN=[N+]=[N-])C(=O)O[C@]12C	–	–	–	–	–	–	–	–	–	–	–	–	–	–	–	–	–	–	–	–	ring closure, yield of all isomers [31]: 52%
